Results as given in article PMC12064818, “A general assay platform to study protein pharmacology using ligand-dependent structural dynamics” (Nature Communications, 2025).
Like-named read-outs stand apart in the source and are kept apart here.

Key:
FLuc-C-HiBiT = target: T1, FLuc-C-HiBiT (Photinus pyralis, UniProt P08659); experiment: biochemical; settings: enzyme activity, 10 uM ATP; read-out: IC50 or SDR50 (mM) / FLuc E
T1 construct: firefly luciferase with C-terminal HiBiT tag, E. coli expressed

NLuc = target: T2, NLuc (Oplophorus gracilirostris, UniProt Q9GV45, A31E/A60N/A81I/F95D/I117V/K70R/L54V/L99Q/M102K/N193R/P142E/Q151K/Q38R/Q45L/V71I/Y165I); assay type: biochemical; settings: - ATP
T2 construct: His tag (inferred from IMAC purification); made in house; host or cells: E. coli
How it was run: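 Test compounds added to 1 nM NLuc in PBS with 0.05% IGEPAL, ± ATP. Nano-Glo reagent added and incubated 10 min before luminescence read.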

[1] = target: FLuc-C-HiBiT (firefly luciferase) (Photinus pyralis, UniProt P08659, form not given/L550V); experiment: SDR assay, FLuc-C-HiBiT; settings: SDR max. response, clade S
[2] = target: FLuc-C-NLuc (firefly luciferase) (Photinus pyralis, UniProt P08659, form not given/L550V); experiment: SDR assay, FLuc-C-NLuc; settings: - ATP
P. pyralis FLuc = P. pyralis FLuc (Photinus pyralis, UniProt P08659); experiment: FLuc enzymatic luminescence assay, P. pyralis FLuc; assay type: biochemical; settings: FLuc enzymatic assay; for IC50: read-out: IC50 or SDR50 (mM) FLuc E
How it was run: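 Runs with and without 10 µM ATP: compounds were pre-incubated with FLuc (1–10 nM, PBS pH 7.4) at ambient temperature, light-protected, for 30–60 min. Luminescence was imaged 5 min after adding 10 µM D-luciferin (final). Inhibition was scaled between DMSO neutral and no-enzyme controls.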

FLuc-C-HiBiT (firefly luciferase), sequence (P08659 2-550 L550V, form open): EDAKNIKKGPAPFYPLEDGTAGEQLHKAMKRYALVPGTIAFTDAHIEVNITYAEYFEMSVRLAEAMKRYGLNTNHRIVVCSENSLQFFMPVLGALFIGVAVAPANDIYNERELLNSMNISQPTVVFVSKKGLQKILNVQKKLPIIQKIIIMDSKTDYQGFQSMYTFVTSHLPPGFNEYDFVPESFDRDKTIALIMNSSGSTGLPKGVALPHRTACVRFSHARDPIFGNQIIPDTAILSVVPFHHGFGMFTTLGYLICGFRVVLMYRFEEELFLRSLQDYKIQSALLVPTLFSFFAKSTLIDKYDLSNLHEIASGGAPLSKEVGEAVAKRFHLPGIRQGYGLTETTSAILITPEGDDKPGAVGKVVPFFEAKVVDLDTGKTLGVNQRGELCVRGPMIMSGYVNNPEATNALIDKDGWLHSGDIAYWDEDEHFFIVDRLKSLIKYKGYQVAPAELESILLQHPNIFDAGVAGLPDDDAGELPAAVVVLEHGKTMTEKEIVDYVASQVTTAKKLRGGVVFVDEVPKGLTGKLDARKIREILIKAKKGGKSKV
FLuc-C-NLuc (firefly luciferase), sequence (P08659 2-550 L550V, form open): as above
T1 sequence (P08659 whole entry, looked up): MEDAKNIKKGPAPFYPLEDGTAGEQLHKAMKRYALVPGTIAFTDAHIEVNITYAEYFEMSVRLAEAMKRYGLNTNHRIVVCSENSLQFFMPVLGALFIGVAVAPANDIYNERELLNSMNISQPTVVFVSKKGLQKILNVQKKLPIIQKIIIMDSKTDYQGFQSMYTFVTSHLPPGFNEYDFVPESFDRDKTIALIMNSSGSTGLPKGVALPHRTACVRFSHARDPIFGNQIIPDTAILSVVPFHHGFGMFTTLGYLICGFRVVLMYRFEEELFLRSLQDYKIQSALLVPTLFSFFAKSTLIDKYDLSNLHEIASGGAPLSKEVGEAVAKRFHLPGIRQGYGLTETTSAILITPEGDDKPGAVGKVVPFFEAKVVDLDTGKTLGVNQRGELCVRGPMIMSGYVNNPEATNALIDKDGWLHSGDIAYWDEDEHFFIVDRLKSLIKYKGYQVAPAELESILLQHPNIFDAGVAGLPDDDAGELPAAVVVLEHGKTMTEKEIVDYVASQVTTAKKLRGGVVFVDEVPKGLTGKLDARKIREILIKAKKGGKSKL
P. pyralis FLuc, sequence (P08659 whole entry): as the sequence (P08659 whole entry, looked up) above
T2 sequence (Q9GV45 other isoform, or with tags, fused parts or gaps with the stated changes): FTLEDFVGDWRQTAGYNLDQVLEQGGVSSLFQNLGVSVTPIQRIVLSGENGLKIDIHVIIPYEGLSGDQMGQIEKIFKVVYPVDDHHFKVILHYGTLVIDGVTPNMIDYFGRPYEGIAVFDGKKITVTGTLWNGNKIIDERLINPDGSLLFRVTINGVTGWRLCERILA

Row | Structure (SMILES) | IC50 (FLuc-C-HiBiT) [mM] | Efficacy (%) NLuc (- ATP) (NLuc) [%] | % Activity (max response, + ATP) [1] [%] | % Activity (max response, - ATP) [1] [%] | Efficacy (%) FLuc-C-NLuc SDR (-ATP) [2] [%] | pIC50 or pSDR50 FLuc E (P. pyralis FLuc) | Efficacy (%) FLuc E (P. pyralis FLuc; Clade S follow-up) [%] | IC50 (P. pyralis FLuc) [mM] | pIC50 or pSDR50 FLuc E (P. pyralis FLuc; Clade S follow-up) | IC50 (P. pyralis FLuc; Clade S follow-up) [mM]
1 | O=C(NCc1ccco1)C1CCN(C(=O)c2ncn3c2COC(c2ccccc2)C3)CC1 (stereo not drawn) [NCGC00449791-01] | 0.00248 | 0.00 | 367.63 | 0.00 | 0.00 | 5.56 | -97.55 | 0.00278 | – | –
2 | O=C(NCc1cccs1)C1CCN(C(=O)c2ncn3c2COC(c2ccccc2)C3)CC1 (stereo not drawn) [NCGC00449792-01] | 0.00248 | 0.00 | 209.49 | 17.67 | 0.00 | 5.51 | -100.37 | 0.00312 | – | –
3 | CC(NC(=O)C1CCN(C(=O)c2ncn3c2COC(c2ccccc2)C3)CC1)c1ccc(F)cc1 (stereo not drawn) [NCGC00449793-01] | 0.00495 | 0.00 | 272.56 | 0.00 | 0.00 | 5.16 | -92.83 | 0.00699 | – | –
4 | O=C(NCCc1ccccc1)C1CCN(C(=O)c2ncn3c2COC(c2ccccc2)C3)CC1 (stereo not drawn) [NCGC00449794-01] | 0.00248 | 0.00 | 379.45 | 0.00 | 0.00 | 5.66 | -92.17 | 0.00221 | – | –
5 | O=C(NCCc1cccs1)C1CCN(C(=O)c2ncn3c2COC(c2ccccc2)C3)CC1 (stereo not drawn) [NCGC00449796-01] | 0.00442 | 0.00 | 316.37 | 0.00 | 0.00 | 5.26 | -97.05 | 0.00555 | – | –
6 | O=C(NCC1CC1)C1CCN(C(=O)c2ncn3c2COC(c2ccccc2)C3)CC1 (stereo not drawn) [NCGC00449799-01] | 0.007 | 0.00 | 355.70 | 0.00 | 0.00 | 5.11 | -97.90 | 0.00784 | – | –
7 | O=C(NCc1ccncc1)C1CCN(C(=O)c2ncn3c2COC(c2ccccc2)C3)CC1 (stereo not drawn) [NCGC00449800-01] | 0.00176 | 0.00 | 375.34 | 0.00 | 0.00 | 6.01 | -91.84 | 0.00099 | – | –
8 | O=C(NCc1cc(F)ccc1F)C1CCN(C(=O)c2ncn3c2COC(c2ccccc2)C3)CC1 (stereo not drawn) [NCGC00449804-01] | 0.00313 | 0.00 | 321.30 | 16.31 | 0.00 | 5.41 | -84.67 | 0.00393 | – | –
9 | O=C(NCc1ccncc1)C1CCN(C(=O)c2ncn3c2COC(c2ccc(F)cc2)C3)CC1 (stereo not drawn) [NCGC00449833-01] | 0.0111 | -20.01 | 157.03 | 0.00 | 0.00 | – | -87.47 | – | 5.21 | 0.00623
10 | Cc1ccc(C2Cn3cnc(C(=O)N4CCC(C(=O)NCc5ccco5)CC4)c3CO2)cc1 (stereo not drawn) [NCGC00449893-01] | 0.00881 | 0.00 | 104.01 | 0.00 | 0.00 | – | -75.71 | – | 5.01 | 0.00988
11 | O=C(Nc1ccccc1)C1CCN(C(=O)c2ncn3c2COC(c2ccccc2)C3)CC1 (stereo not drawn) [NCGC00449901-01] | 0.00157 | 0.00 | 354.42 | 0.00 | 0.00 | – | -101.51 | – | 5.86 | 0.0014
12 | Cc1cccc(NC(=O)C2CCN(C(=O)c3ncn4c3COC(c3ccccc3)C4)CC2)c1 (stereo not drawn) [NCGC00449902-01] | 0.00248 | 0.00 | 372.05 | 0.00 | 0.00 | – | -97.06 | – | 5.66 | 0.00221
13 | Cc1ccc(NC(=O)C2CCN(C(=O)c3ncn4c3COC(c3ccccc3)C4)CC2)cc1 (stereo not drawn) [NCGC00449903-01] | 0.00176 | 0.00 | 343.11 | 0.00 | 0.00 | – | -93.84 | – | 5.61 | 0.00248
14 | Cc1cc(C)cc(NC(=O)C2CCN(C(=O)c3ncn4c3COC(c3ccccc3)C4)CC2)c1 (stereo not drawn) [NCGC00449905-01] | 0.00313 | 0.00 | 375.38 | 0.00 | 0.00 | – | -86.91 | – | 5.46 | 0.0035
15 | CC(C)c1cccc(NC(=O)C2CCN(C(=O)c3ncn4c3COC(c3ccccc3)C4)CC2)c1 (stereo not drawn) [NCGC00449908-01] | 0.00785 | 0.00 | 304.79 | 0.00 | 0.00 | – | -95.10 | – | 5.26 | 0.00555
16 | CC(C)c1ccc(NC(=O)C2CCN(C(=O)c3ncn4c3COC(c3ccccc3)C4)CC2)cc1 (stereo not drawn) [NCGC00449909-01] | 0.00351 | 0.00 | 370.54 | 0.00 | 0.00 | – | -93.68 | – | 5.51 | 0.00312
17 | COc1ccc(NC(=O)C2CCN(C(=O)c3ncn4c3COC(c3ccccc3)C4)CC2)cc1 (stereo not drawn) [NCGC00449910-01] | 0.00785 | 0.00 | 319.33 | 0.00 | 0.00 | – | -79.86 | – | 5.06 | 0.0088
18 | COc1ccc(NC(=O)C2CCN(C(=O)c3ncn4c3COC(c3ccccc3)C4)CC2)cc1OC (stereo not drawn) [NCGC00449911-01] | 0.00351 | 11.18 | 240.56 | 15.50 | 0.00 | – | -91.83 | – | 5.51 | 0.00312
